Laboratory results reported in the NIST ThermoML archive (doi:10.1016/j.fluid.2009.01.004).

Assay: xn = mol fraction of the nth substance listed
Conditions: 101 kPa, Liquid, Capillary tube (Ostwald / Ubbelohde) method

CCN(CC)CC [triethylamine] + O
viscosity [mPa·s]
Conditions	x1 = 0.019	x1 = 0.042	x1 = 0.077	x1 = 0.106	x1 = 0.151	x1 = 0.21	x1 = 0.293	x1 = 0.415	x1 = 0.615	x1 = 1
283.15 K	2.52	4.075	5.547	6.629	6.651	5.635	4.242	2.821	1.84	0.4275
286.15 K	2.211	3.512	4.761	5.476	5.497	4.801	3.679	2.511	1.531	0.414
288.15 K	2.033	3.199	4.242	4.748	4.769	4.302	3.366	2.333	1.354	0.4051
290.15 K	1.875	2.948	3.764	4.07	4.092	3.85	3.115	2.175	1.195	0.3961
291.15 K	1.804	2.846	3.53	3.751	3.773	3.644	3.013	2.104	1.124	0.3917
291.35 K	1.792	2.831	3.482	3.677	3.699	3.611	2.998	2.093	1.113	0.391

O [water] + CCN(CC)CC
x2 = 0
Conditions	viscosity [mPa·s]
283.15 K	1.306
286.15 K	1.206
288.15 K	1.144
290.15 K	1.085
291.15 K	1.058
291.35 K	1.053
